Assay results reported in patent publication US12172995B2, “Substituted indole and indazole compounds” (BRISTOL-MYERS SQUIBB COMPANY, priority 2018, dated 2024).

Columns and labels:
Assay type in all cases: cell-based
[1] = molecular target: T1, human TLR7 (Homo sapiens, UniProt Q9NYK1); experiment: TLR7 inhibition reporter assay (HEK-Blue SEAP); conditions: HEK-Blue cells overexpressing human TLR7, stimulated with gardiquimod 7.5 μM, 22 hour incubation
T1 construct: host or cells: HEK-Blue cells
T1 sequence (Q9NYK1 27-1049): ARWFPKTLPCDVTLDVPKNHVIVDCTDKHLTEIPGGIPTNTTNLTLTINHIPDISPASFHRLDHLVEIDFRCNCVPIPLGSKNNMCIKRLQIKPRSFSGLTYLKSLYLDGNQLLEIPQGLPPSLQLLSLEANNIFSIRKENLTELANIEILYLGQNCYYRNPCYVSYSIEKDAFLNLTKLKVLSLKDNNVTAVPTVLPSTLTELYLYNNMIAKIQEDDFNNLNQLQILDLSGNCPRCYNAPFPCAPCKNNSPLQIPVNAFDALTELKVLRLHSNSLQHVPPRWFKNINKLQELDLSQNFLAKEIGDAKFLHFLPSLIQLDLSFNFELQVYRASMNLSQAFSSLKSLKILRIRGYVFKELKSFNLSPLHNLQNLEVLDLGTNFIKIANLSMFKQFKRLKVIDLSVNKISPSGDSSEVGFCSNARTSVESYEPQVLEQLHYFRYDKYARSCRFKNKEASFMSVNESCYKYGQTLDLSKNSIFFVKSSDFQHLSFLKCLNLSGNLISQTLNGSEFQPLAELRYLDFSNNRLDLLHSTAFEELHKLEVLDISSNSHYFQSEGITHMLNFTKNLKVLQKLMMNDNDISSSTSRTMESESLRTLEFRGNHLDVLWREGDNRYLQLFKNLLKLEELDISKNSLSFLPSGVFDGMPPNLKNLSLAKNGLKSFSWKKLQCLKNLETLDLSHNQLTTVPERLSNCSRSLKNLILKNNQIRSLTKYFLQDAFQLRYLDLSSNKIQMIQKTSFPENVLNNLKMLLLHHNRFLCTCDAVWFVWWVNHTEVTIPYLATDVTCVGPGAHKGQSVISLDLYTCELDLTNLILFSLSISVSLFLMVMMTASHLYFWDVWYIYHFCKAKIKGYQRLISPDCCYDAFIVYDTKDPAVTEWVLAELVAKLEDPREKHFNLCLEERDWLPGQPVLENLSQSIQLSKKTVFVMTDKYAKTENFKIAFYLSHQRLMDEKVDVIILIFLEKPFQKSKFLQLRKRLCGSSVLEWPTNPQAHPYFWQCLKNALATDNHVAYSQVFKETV
In short: (§1)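 HEK-Blue cells overexpressing human TLR7, TLR8 or TLR9 with an NF-κB/AP-1-driven SEAP reporter were pre-treated 30 min at room temperature with compound (0.05 nM to 50 μM), then stimulated with gardiquimod 7.5 μM (TLR7), R848 15.9 μM (TLR8) or ODN2006 5 nM (TLR9). SEAP measured after 22 h at 37° C; inhibition normalized between agonist-plus-DMSO and reference-inhibitor wells.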

[2] = molecular target: T2, human TLR9 (Homo sapiens, UniProt Q9NR96); experiment: TLR9 inhibition reporter assay (HEK-Blue SEAP); conditions: HEK-Blue cells overexpressing human TLR9, stimulated with ODN2006 5 nM, 22 hour incubation
T2 construct: host or cells: HEK-Blue cells
T2 sequence (Q9NR96 26-1032): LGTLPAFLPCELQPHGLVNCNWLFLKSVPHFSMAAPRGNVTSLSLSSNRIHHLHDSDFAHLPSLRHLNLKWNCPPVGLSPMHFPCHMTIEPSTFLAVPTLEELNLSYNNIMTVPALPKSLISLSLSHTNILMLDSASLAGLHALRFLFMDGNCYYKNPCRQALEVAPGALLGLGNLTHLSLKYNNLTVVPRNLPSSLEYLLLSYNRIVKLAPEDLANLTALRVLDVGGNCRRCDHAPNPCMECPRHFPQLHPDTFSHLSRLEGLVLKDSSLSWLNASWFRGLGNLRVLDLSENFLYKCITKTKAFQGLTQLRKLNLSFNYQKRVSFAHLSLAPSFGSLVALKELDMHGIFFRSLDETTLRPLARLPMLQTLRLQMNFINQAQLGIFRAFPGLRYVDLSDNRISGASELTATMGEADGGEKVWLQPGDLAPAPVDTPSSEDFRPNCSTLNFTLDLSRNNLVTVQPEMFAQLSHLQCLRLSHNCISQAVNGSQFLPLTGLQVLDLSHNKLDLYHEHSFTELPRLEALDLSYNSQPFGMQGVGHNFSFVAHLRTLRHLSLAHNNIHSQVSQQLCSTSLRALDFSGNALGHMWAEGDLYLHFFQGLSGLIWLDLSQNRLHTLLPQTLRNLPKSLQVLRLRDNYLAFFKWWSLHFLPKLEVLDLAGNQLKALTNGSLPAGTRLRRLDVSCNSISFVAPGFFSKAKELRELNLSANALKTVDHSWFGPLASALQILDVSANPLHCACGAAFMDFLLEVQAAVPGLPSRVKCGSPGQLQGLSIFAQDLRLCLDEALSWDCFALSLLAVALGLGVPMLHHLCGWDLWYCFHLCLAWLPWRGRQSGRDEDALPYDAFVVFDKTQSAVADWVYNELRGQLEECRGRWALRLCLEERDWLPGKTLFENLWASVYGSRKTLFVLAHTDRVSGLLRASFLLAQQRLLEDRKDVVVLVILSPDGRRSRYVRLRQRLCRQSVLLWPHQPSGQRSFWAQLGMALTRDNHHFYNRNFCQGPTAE
In short: as §1

[3] = molecular target: T3, human TLR8 (Homo sapiens, UniProt Q9NR97); experiment: TLR8 inhibition reporter assay (HEK-Blue SEAP); conditions: HEK-Blue cells overexpressing human TLR8, stimulated with R848 15.9 μM, 22 hour incubation
T3 construct: host or cells: HEK-Blue cells
T3 sequence (Q9NR97 27-1041): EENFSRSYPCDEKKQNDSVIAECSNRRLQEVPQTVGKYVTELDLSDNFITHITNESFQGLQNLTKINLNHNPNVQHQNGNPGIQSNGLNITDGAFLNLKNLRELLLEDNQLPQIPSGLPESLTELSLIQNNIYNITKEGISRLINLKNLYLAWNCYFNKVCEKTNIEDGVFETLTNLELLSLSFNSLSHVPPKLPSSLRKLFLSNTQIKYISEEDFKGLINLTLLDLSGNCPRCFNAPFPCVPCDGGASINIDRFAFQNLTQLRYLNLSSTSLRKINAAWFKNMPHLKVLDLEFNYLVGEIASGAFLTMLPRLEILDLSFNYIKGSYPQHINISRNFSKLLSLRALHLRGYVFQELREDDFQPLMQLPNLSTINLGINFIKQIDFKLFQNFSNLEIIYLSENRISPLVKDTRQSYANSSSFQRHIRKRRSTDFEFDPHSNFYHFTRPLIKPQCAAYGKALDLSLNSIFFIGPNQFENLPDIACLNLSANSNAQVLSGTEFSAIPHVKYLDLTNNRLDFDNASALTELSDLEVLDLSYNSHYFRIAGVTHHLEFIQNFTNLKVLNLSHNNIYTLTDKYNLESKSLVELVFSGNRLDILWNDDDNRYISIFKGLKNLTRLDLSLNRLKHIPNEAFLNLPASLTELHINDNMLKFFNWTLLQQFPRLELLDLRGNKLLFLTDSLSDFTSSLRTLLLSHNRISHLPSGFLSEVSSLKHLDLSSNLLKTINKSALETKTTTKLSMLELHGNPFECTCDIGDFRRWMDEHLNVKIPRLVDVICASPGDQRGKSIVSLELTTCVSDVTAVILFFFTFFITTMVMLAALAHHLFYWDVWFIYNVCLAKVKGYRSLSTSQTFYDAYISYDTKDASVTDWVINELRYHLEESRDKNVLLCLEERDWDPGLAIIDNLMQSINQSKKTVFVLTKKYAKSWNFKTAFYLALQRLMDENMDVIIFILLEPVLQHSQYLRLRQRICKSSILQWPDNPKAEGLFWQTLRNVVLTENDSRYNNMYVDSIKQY
In short: as §1

Row | IC50 [1] [nM] | IC50 [2] [nM] | IC50 [3] [nM] | SMILES
1 | 0.4 | 13100 | 0.2 | COc1cc(-c2cc3[nH]nc(C4CCC(N5CC(OC)C5)CC4)c3cc2C(C)C)cn2ncnc12 (single isomer, unassigned) [Example 147, 6-(5-isopropyl-3-(4-(3-methoxyazetidin-1-yl)cyclohexyl)-1H-indazol-6-yl)-8-methoxy-[1,2,4]triazolo[1,5-a]pyridine]
2 | 1.3 | 6450 | 31.3 | COc1cc(-c2cc3[nH]nc(C4CCC(N5CC(OC)C5)CC4)c3cc2C(C)C)cn2ncnc12 (single isomer, unassigned) [Example 148, 6-(5-isopropyl-3-(4-(3-methoxyazetidin-1-yl)cyclohexyl)-1H-indazol-6-yl)-8-methoxy-[1,2,4]triazolo[1,5-a]pyridine]
3 | 0.8 | 7480 | 0.4 | CCOC1CN(C2CCC(c3n[nH]c4cc(-c5cc(C)c6ncnn6c5)c(C(C)C)cc34)CC2)C1 (single isomer, unassigned) [Example 149, 6-(3-(4-(3-ethoxyazetidin-1-yl)cyclohexyl)-5-isopropyl-1H-indazol-6-yl)-8-methyl-[1,2,4]triazolo[1,5-a]pyridine]
4 | 1.7 | 6910 | 0.1 | CCOC1CN(C2CCC(c3n[nH]c4cc(-c5cc(C)c6ncnn6c5)c(C(C)C)cc34)CC2)C1 (single isomer, unassigned) [Example 150, 6-(3-(4-(3-ethoxyazetidin-1-yl)cyclohexyl)-5-isopropyl-1H-indazol-6-yl)-8-methyl-[1,2,4]triazolo[1,5-a]pyridine]
5 | 6.4 | 8400 | 0.5 | Cc1cc(-c2cc3[nH]nc(C4CCC(N5CC(OC(C)C)C5)CC4)c3cc2C(C)C)cn2ncnc12 (single isomer, unassigned) [Example 161, 6-(3-(4-(3-isopropoxyazetidin-1-yl)cyclohexyl)-5-isopropyl-1H-indazol-6-yl)-8-methyl-[1,2,4]triazolo[1,5-a]pyridine]
6 | 1.5 | 8540 | 0.7 | Cc1cc(-c2cc3[nH]nc(C4CCC(N5CC(OC(C)C)C5)CC4)c3cc2C(C)C)cn2ncnc12 (single isomer, unassigned) [Example 162, 6-(3-(4-(3-isopropoxyazetidin-1-yl)cyclohexyl)-5-isopropyl-1H-indazol-6-yl)-8-methyl-[1,2,4]triazolo[1,5-a]pyridine]
7 | 4.2 | 8900 | 0.2 | Cc1cc(-c2cc3[nH]nc(C4CCC(N5CCC(C)(O)C5)CC4)c3cc2C(C)C)cn2ncnc12 (single isomer, unassigned) [Example 166, 1-(4-(5-isopropyl-6-(8-methyl-[1,2,4]triazolo[1,5-a]pyridin-6-yl)-1H-indazol-3-yl)cyclohexyl)-3-methylpyrrolidin-3-ol]
8 | 1.9 | 2570 | 1.6 | CCc1cc(-c2cc(C)c3ncnn3c2)cc2[nH]nc(OC3CCC(N(C)C)CC3)c12 (single isomer, unassigned) [Example 168, 4-((4-ethyl-6-(8-methyl-[1,2,4]triazolo[1,5-a]pyridin-6-yl)-1H-indazol-3-yl)oxy)-N,N-dimethylcyclohexan-1-amine]
9 | 1.2 | 1830 | 0.5 | CCc1cc(-c2cc(C)c3ncnn3c2)cc2[nH]nc(OC3CCC(N(C)C)CC3)c12 (single isomer, unassigned) [Example 169, 4-((4-ethyl-6-(8-methyl-[1,2,4]triazolo[1,5-a]pyridin-6-yl)-1H-indazol-3-yl)oxy)-N,N-dimethylcyclohexan-1-amine]
10 | 3.3 | 2080 | 8.5 | Cc1cc(-c2cc(C)c3ncnn3c2)cc2[nH]nc(OC3CCC(N(C)C)CC3)c12 (single isomer, unassigned) [Example 179, N,N-dimethyl-4-((4-methyl-6-(8-methyl-[1,2,4]triazolo[1,5-a]pyridin-6-yl)-1H-indazol-3-yl)oxy)cyclohexan-1-amine]
11 | 2.6 | 3260 | 2.3 | Cc1cc(-c2cc(C)c3ncnn3c2)cc2[nH]nc(OC3CCC(N(C)C)CC3)c12 (single isomer, unassigned) [Example 180, N,N-dimethyl-4-((4-methyl-6-(8-methyl-[1,2,4]triazolo[1,5-a]pyridin-6-yl)-1H-indazol-3-yl)oxy)cyclohexan-1-amine]
12 | 71.7 | ≥ 50000 | 19.9 | Cc1cc2c(OC3CCC(N(C)C)CC3)n[nH]c2cc1-c1cc(C)c2ncnn2c1 (single isomer, unassigned) [Example 181, N,N-dimethyl-4-((5-methyl-6-(8-methyl-[1,2,4]triazolo[1,5-a]pyridin-6-yl)-1H-indazol-3-yl)oxy)cyclohexan-1-amine]
